Experimental findings from patent US6613747B2, “6-O-carbamoyl ketolide antibacterials” (Ortho-McNeil Pharmaceutical, Inc., priority 2000, dated 2003) are described below.

Holding throughout (experiment): MIC, microdilution broth method (NCCLS)
What all share (format): cell-based
In general terms: Dilution methods test growth across graded concentrations, often in twofold steps.

Assay [1] relates to H. influenzae ATCC49247. As to conditions: E: H. influenzae ATCC49247, 35° C., 16-20 hours. In outline: (§1)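 Broth microdilution per NCCLS M7-A4: cation-adjusted Mueller-Hinton broth, two-fold drug dilutions, inoculum ~5×10^4 CFU/well, 35° C., 16-20 h; MIC read against no-compound growth controls.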
Assay [2] concerns S. pneumoniae ATCC49619. Conditions: D: S. pneumoniae ATCC49619, 35° C., 16-20 hours. The method in brief:
as §1

The test system of assay [3] is S. aureus ATCC29213. Conditions: B: S. aureus ATCC29213, 35° C., 16-20 hours. In outline: as §1
Assay [4] deals with E. faecalis ATCC29212. As to conditions: C: E. faecalis ATCC29212, 35° C., 16-20 hours. The method in brief: as §1
In assay [5] the test system is E. coli OC2605. As to conditions: A: E. coli OC2605, 35° C., 16-20 hours. In outline:
as §1

SMILES strings stand for the structures. ≈ marks a conversion by molar mass, not a printed value.

On to `CC[C@H]1OC(=O)[C@H](C)C(=O)[C@H](C)[C@@H](O[C@@H]2O[C@H](C)C[C@H](N(C)C)[C@H]2O)[C@](C)(OC(=O)NCc2ccc(-c3ccc([N+](=O)[O-])cn3)cc2)C[C@@H](C)C(=O)[C@H](C)[C@H]2NC(=O)O[C@@]21C` [Compound 42], for which the MIC in assay [1] turned out to be 1 µg/mL (≈ 1.17 µM); in assay [2] it was 0.12 µg/mL (≈ 0.141 µM); in assay [3], 0.5 µg/mL (≈ 0.586 µM); in assay [4], 0.12 µg/mL (≈ 0.141 µM); in assay [5], 16 µg/mL (≈ 18.7 µM).

As to `CC[C@H]1OC(=O)[C@H](C)C(=O)[C@H](C)[C@@H](O[C@@H]2O[C@H](C)C[C@H](N(C)C)[C@H]2O)[C@](C)(OC(=O)NCc2ccc(-c3ncccn3)cc2F)C[C@@H](C)C(=O)[C@H](C)[C@H]2NC(=O)O[C@@]21C` [Compound 87], the MIC in assay [1] was 4 µg/mL (≈ 4.83 µM); in assay [2] it was 0.03 µg/mL (≈ 0.0362 µM); in assay [3], 0.25 µg/mL (≈ 0.302 µM); in assay [4], 0.06 µg/mL (≈ 0.0725 µM); in assay [5], 16 µg/mL (≈ 19.3 µM).

As for `CCC1OC(=O)C(C)C(=O)C(C)C(OC2OC(C)CC(N(C)C)C2O)C(C)(OC(=O)NCC=Cc2ccc(-c3cccnn3)cc2)CC(C)C(=O)C(C)C2NC(=O)OC12C` (stereo not drawn) [Compound 96], the MIC in assay [1] is 1 µg/mL (≈ 1.2 µM); in assay [2] it was 0.03 µg/mL (≈ 0.0359 µM); in assay [3], 0.25 µg/mL (≈ 0.299 µM); in assay [4], 0.12 µg/mL (≈ 0.144 µM); in assay [5], 4 µg/mL (≈ 4.78 µM).

As to `CC[C@H]1OC(=O)[C@H](C)C(=O)[C@H](C)[C@@H](O[C@@H]2O[C@H](C)C[C@H](N(C)C)[C@H]2O)[C@](C)(OC(=O)NC/C=C/c2ccc(-n3cccn3)cc2F)C[C@@H](C)C(=O)[C@H](C)[C@H]2NC(=O)O[C@@]21C` [Compound 74], the MIC in assay [1] is 1 µg/mL (≈ 1.19 µM); in assay [2], “≦0.015 μg/mL”; in assay [3] it was 0.06 µg/mL (≈ 0.0713 µM); in assay [4], 0.06 µg/mL (≈ 0.0713 µM); in assay [5], 16 µg/mL (≈ 19 µM).

Take `CC[C@H]1OC(=O)[C@H](C)C(=O)[C@H](C)[C@@H](O[C@@H]2O[C@H](C)C[C@H](N(C)C)[C@H]2O)[C@](C)(OC(=O)NCC#Cc2ccccc2)C[C@@H](C)C(=O)[C@H](C)[C@H]2NC(=O)O[C@@]21C` [Compound 13]: the MIC in assay [1] is 8 µg/mL (≈ 10.6 µM); in assay [2], 0.06 µg/mL (≈ 0.0794 µM); in assay [3], 1 µg/mL (≈ 1.32 µM); in assay [4], 0.25 µg/mL (≈ 0.331 µM); in assay [5], above 16 µg/mL.

On to `CC[C@H]1OC(=O)[C@H](C)C(=O)[C@H](C)[C@@H](O[C@@H]2O[C@H](C)C[C@H](N(C)C)[C@H]2O)[C@](C)(OC(=O)NC/C=C/c2ccc(-n3cc(C)cn3)cc2)C[C@@H](C)C(=O)[C@H](C)[C@H]2NC(=O)O[C@@]21C` [Compound 67], for which the MIC is 4 µg/mL (≈ 4.77 µM) in assay [1]; 0.06 µg/mL (≈ 0.0716 µM) in assay [2]; 0.25 µg/mL (≈ 0.298 µM) in assay [3]; 0.25 µg/mL (≈ 0.298 µM) in assay [4]; above 16 µg/mL in assay [5].

For `CC[C@H]1OC(=O)[C@H](C)C(=O)[C@H](C)[C@@H](O[C@@H]2O[C@H](C)C[C@H](N(C)C)[C@H]2O)[C@](C)(OC(=O)NCc2ccc(-c3cnccn3)cc2)C[C@@H](C)C(=O)[C@H](C)[C@H]2NC(=O)O[C@@]21C` [Compound 76], the MIC in assay [1] was 2 µg/mL (≈ 2.47 µM); in assay [2] it was “≦0.015 μg/mL”; in assay [3], 0.25 µg/mL (≈ 0.309 µM); in assay [4], 0.06 µg/mL (≈ 0.0741 µM); in assay [5], 16 µg/mL (≈ 19.8 µM).

With `CC[C@H]1OC(=O)[C@H](C)C(=O)[C@H](C)[C@@H](O[C@@H]2O[C@H](C)C[C@H](N(C)C)[C@H]2O)[C@](C)(OC(=O)NCCN(C)Cc2cnc3ccccc3c2)C[C@@H](C)C(=O)[C@H](C)[C@H]2NC(=O)O[C@@]21C` [Compound 119], the MIC in assay [1] was 8 µg/mL (≈ 9.52 µM); in assay [2], 0.06 µg/mL (≈ 0.0714 µM); in assay [3], 4 µg/mL (≈ 4.76 µM); in assay [4], 0.25 µg/mL (≈ 0.298 µM); in assay [5] it was above 16 µg/mL.

Consider `CC[C@H]1OC(=O)[C@H](C)C(=O)[C@H](C)[C@@H](O[C@@H]2O[C@H](C)C[C@H](N(C)C)[C@H]2O)[C@](C)(OC(=O)NCC2CC(c3ccc(-c4ncccn4)cc3)C2)C[C@@H](C)C(=O)[C@H](C)[C@H]2NC(=O)O[C@@]21C` (stereo partly drawn) [Compound 135], for which the MIC is above 16 µg/mL in assay [1]; 0.5 µg/mL (≈ 0.579 µM) in assay [2]; 4 µg/mL (≈ 4.63 µM) in assay [3]; 2 µg/mL (≈ 2.31 µM) in assay [4]; above 16 µg/mL in assay [5].

As to `CC[C@H]1OC(=O)[C@H](C)C(=O)[C@H](C)[C@@H](O[C@@H]2O[C@H](C)C[C@H](N(C)C)[C@H]2O)[C@](C)(OC(=O)NCCCc2cccnc2)C[C@@H](C)C(=O)[C@H](C)[C@H]2NC(=O)O[C@@]21C` [Compound 12], the MIC in assay [1] was 4 µg/mL (≈ 5.26 µM); in assay [2], 0.06 µg/mL (≈ 0.0789 µM); in assay [3], 1 µg/mL (≈ 1.31 µM); in assay [4], 0.12 µg/mL (≈ 0.158 µM); in assay [5], 16 µg/mL (≈ 21 µM).

For the molecule `CC[C@H]1OC(=O)[C@H](C)C(=O)[C@H](C)[C@@H](O[C@@H]2O[C@H](C)C[C@H](N(C)C)[C@H]2O)[C@](C)(OC(=O)NC/C=C/c2ccc(-c3ccc([N+](=O)[O-])cn3)cc2)C[C@@H](C)C(=O)[C@H](C)[C@H]2NC(=O)O[C@@]21C` [Compound 45], the MIC is 4 µg/mL (≈ 4.55 µM) in assay [1]; 0.25 µg/mL (≈ 0.284 µM) in assay [2]; 1 µg/mL (≈ 1.14 µM) in assay [3]; 0.5 µg/mL (≈ 0.568 µM) in assay [4]; above 16 µg/mL in assay [5].

For the molecule `CC[C@H]1OC(=O)[C@H](C)C(=O)[C@H](C)[C@@H](O[C@@H]2O[C@H](C)C[C@H](N(C)C)[C@H]2O)[C@](C)(OC(=O)NCCNCc2cccnc2)C[C@@H](C)C(=O)[C@H](C)[C@H]2NC(=O)O[C@@]21C` [Compound 116], the MIC in assay [1] is 8 µg/mL (≈ 10.3 µM); in assay [2], 0.12 µg/mL (≈ 0.155 µM); in assay [3], 2 µg/mL (≈ 2.58 µM); in assay [4] it was 1 µg/mL (≈ 1.29 µM); in assay [5] it was above 16 µg/mL.

In the case of `CC[C@H]1OC(=O)[C@H](C)C(=O)[C@H](C)[C@@H](O[C@@H]2O[C@H](C)C[C@H](N(C)C)[C@H]2O)[C@](C)(OC(=O)NCc2ccc(-n3cccn3)c(F)c2)C[C@@H](C)C(=O)[C@H](C)[C@H]2NC(=O)O[C@@]21C` [Compound 59], the MIC in assay [1] was 4 µg/mL (≈ 4.9 µM); in assay [2], 0.03 µg/mL (≈ 0.0368 µM); in assay [3], 0.5 µg/mL (≈ 0.613 µM); in assay [4], “≦0.25 μg/mL”; in assay [5] it was above 16 µg/mL.

For `CC[C@H]1OC(=O)[C@H](C)C(=O)[C@H](C)[C@@H](O[C@@H]2O[C@H](C)C[C@H](N(C)C)[C@H]2O)[C@](C)(OC(=O)NCc2ccc(-n3cccn3)c(OC)c2)C[C@@H](C)C(=O)[C@H](C)[C@H]2NC(=O)O[C@@]21C` [Compound 81], the MIC in assay [1] is 8 µg/mL (≈ 9.66 µM); in assay [2] it was 0.06 µg/mL (≈ 0.0725 µM); in assay [3], 2 µg/mL (≈ 2.42 µM); in assay [4], 0.12 µg/mL (≈ 0.145 µM); in assay [5] it was above 16 µg/mL.

Regarding `CC[C@H]1OC(=O)[C@H](C)C(=O)[C@H](C)[C@@H](O[C@@H]2O[C@H](C)C[C@H](N(C)C)[C@H]2O)[C@](C)(OC(=O)NC/C=C/c2ccc(-c3ccccn3)s2)C[C@@H](C)C(=O)[C@H](C)[C@H]2NC(=O)O[C@@]21C` [Compound 57], the MIC in assay [1] worked out at 2 µg/mL (≈ 2.38 µM); in assay [2], 0.03 µg/mL (≈ 0.0357 µM); in assay [3], 0.25 µg/mL (≈ 0.297 µM); in assay [4] it was 0.12 µg/mL (≈ 0.143 µM); in assay [5], 16 µg/mL (≈ 19 µM).

In the case of `CC[C@H]1OC(=O)[C@H](C)C(=O)[C@H](C)[C@@H](O[C@@H]2O[C@H](C)C[C@H](N(C)C)[C@H]2O)[C@](C)(OC(=O)NC/C=C/c2ccc(Br)cc2)C[C@@H](C)C(=O)[C@H](C)[C@H]2NC(=O)O[C@@]21C` [Compound 16], the MIC in assay [1] was determined as 4 µg/mL (≈ 4.78 µM); in assay [2], 0.03 µg/mL (≈ 0.0359 µM); in assay [3], 0.5 µg/mL (≈ 0.598 µM); in assay [4] it was 0.12 µg/mL (≈ 0.143 µM); in assay [5], 8 µg/mL (≈ 9.56 µM).

For the molecule `CC[C@H]1OC(=O)[C@H](C)C(=O)[C@H](C)[C@@H](O[C@@H]2O[C@H](C)C[C@H](N(C)C)[C@H]2O)[C@](C)(OC(=O)NCc2ccc(-n3cc(C)cn3)cc2)C[C@@H](C)C(=O)[C@H](C)[C@H]2NC(=O)O[C@@]21C` [Compound 64], the MIC in assay [1] was 4 µg/mL (≈ 4.93 µM); in assay [2] it was 0.03 µg/mL (≈ 0.0369 µM); in assay [3] it was 1 µg/mL (≈ 1.23 µM); in assay [4], 0.12 µg/mL (≈ 0.148 µM); in assay [5] it was above 16 µg/mL.

In the case of `CC[C@H]1OC(=O)[C@H](C)C(=O)[C@H](C)[C@@H](O[C@@H]2O[C@H](C)C[C@H](N(C)C)[C@H]2O)[C@](C)(OC(=O)NCCCCc2ccccc2)C[C@@H](C)C(=O)[C@H](C)[C@H]2NC(=O)O[C@@]21C` [Compound 9], the MIC in assay [1] was 16 µg/mL (≈ 20.7 µM); in assay [2] it was 0.03 µg/mL (≈ 0.0388 µM); in assay [3] it was 1 µg/mL (≈ 1.29 µM); in assay [4], 0.25 µg/mL (≈ 0.323 µM); in assay [5], above 16 µg/mL.
